# Where a name gives a salt, the structure may show the parent alone.
# Biological target: T1, S1P1 (PathHunter CHO-K1 EDG1 β-Arrestin cell line) (Homo sapiens, UniProt P21453)
# T1 construct: host or cells: PathHunter CHO-K1 EDG1 β-Arrestin cell line
# Assay: S1P-1 β-Arrestin recruitment assay
# Format: cell-based
# Conditions: CHO-K1 EDG1 β-Arrestin cells, chemi-luminescence
# Experimental: S1P-1 β-Arrestin Recruitment Assay
# β-Arrestin recruitment assays were carried out using the PathHunter CHO-K1 EDG1
# β-Arrestin cell line (DiscoveRx Corporation) in a chemi-luminescence detection assay. This cell line stably expresses β-Arrestin 2 and S1P1 fused to complementing portions of β-galactosidase (‘EA’ and ‘pro-link’, respectively) which associate upon Arrestin recruitment to form functional β-galactosidase enzyme.
# Cells were grown to 80% confluency in Growth Medium (F12 nutrient HAMS supplemented with 10% heat-inactivated USA FBS, 1% L-glutamax, 800 μg/ml Geneticin and 300 μg/ml Hygromycin). Cells were harvested from the flask using Enzyme Free Cell Dissociation Buffer (Gibco) and washed from flasks with Optimem solution (Gibco). Cells were then centrifuged at 1000 rpm for 2-3 min and resuspended in Assay Buffer (Prepared from Sigma kit H1387 supplemented with 20 ml/L HEPES, 4.7 ml/L NaHCO3, 0.1% pluronic acid F-68 solution, 0.1% BSA and adjusted to pH 7.4 using sodium hydroxide at 1×10^6 cells/ml. Cells were dispensed into assay plates containing compounds (100n1/well of a solution of test compound in 100% DMSO) at 1×10^4 cells/well and incubated at 37° C./5% CO2 for 90 min followed by 15 min at room temperature. 5 μl detection mix (1 part Galacton Star, 5 parts Emerald II, 19 parts Assay Buffer; DiscoveRx) were added per well and the plates incubated at room temperature for 60 min. Luminescence was quantified using a Viewlux plate reader.
# T1 sequence (P21453 whole entry): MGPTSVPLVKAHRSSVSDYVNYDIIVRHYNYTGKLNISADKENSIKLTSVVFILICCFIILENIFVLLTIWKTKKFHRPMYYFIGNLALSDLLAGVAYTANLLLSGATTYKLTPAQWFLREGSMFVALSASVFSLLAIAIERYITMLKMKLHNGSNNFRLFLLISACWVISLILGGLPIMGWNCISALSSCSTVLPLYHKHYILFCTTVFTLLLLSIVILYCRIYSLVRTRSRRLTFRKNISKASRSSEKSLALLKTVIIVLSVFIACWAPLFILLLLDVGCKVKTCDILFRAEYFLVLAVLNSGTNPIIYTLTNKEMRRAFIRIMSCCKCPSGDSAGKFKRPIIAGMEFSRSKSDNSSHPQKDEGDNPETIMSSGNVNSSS
# T1 sequence (P32121 whole entry partner): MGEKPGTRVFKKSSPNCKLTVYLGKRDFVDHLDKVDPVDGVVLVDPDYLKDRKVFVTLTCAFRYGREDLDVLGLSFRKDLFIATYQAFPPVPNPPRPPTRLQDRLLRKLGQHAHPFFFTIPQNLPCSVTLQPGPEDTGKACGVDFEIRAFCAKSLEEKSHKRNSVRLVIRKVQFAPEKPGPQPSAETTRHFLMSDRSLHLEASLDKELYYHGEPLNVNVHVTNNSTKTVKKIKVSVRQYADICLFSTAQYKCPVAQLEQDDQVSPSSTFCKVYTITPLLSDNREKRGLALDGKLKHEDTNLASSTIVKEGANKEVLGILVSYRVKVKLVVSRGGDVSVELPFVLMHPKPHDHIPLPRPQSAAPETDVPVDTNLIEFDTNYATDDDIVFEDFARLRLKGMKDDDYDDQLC
row,Structure (SMILES),EC50 [nM]
1,"Cc1c(-c2noc(-c3ccc(OC(C)C)c(C#N)c3)n2)ccc2c1CCN(CCC(=O)N(C)C)C2 [Example 2, 3-[6-(5-{3-Cyano-4-[(1-methylethyl)oxy]phenyl}-1,2,4-oxadiazol-3-yl)-5-methyl-3,4-dihydro-2(1H)-isoquinolinyl]-N,N-dimethylpropanamide]",≤ 100
2,"CCOc1ccc(-c2nc(-c3ccc4c(c3)CCN(CC(O)CO)CC4)no2)cc1C#N (stereo not drawn) [Example 70, 5-{3-[3-(2,3-dihydroxypropyl)-2,3,4,5-tetrahydro-1H-3-benzazepin-7-yl]-1,2,4-oxadiazol-5-yl}-2-(ethyloxy)benzonitrile]",≤ 100
3,"CC(C)Oc1ccc(-c2nc(-c3ccc4c(c3)CCN(CCC(=O)N(C)C)CC4)no2)cc1C#N [Example 23, 3-[7-(5-{3-Cyano-4-[(1-methylethyl)oxy]phenyl}-1,2,4-oxadiazol-3-yl)-1,2,4,5-tetrahydro-3H-3-benzazepin-3-yl]-N,N-dimethylpropanamide]",≤ 100
4,"Cc1c(-c2noc(-c3ccc(OC(C)C)c(Cl)c3)n2)ccc2c1CCN(C(=O)CNC(CO)CO)C2 [Example 190, 2-({2-[6-(5-{3-chloro-4-[(1-methylethyl)oxy]phenyl}-1,2,4-oxadiazol-3-yl)-5-methyl-3,4-dihydro-2(1H)-isoquinolinyl]-2-oxoethyl}amino)-1,3-propanediol hydrochloride]",≤ 100
5,"CC(C)Oc1ccc(-c2nc(-c3cccc4c3CCN(C(=O)CCN)C4)no2)cc1C#N [Example 88, 5-[3-(2-β-alanyl-1,2,3,4-tetrahydro-5-isoquinolinyl)-1,2,4-oxadiazol-5-yl]-2-[(1-methylethyl)oxy]benzonitrile hydrochloride]",≤ 100
6,"CC(C)Nc1ncc(-c2nc(-c3ccc4c(c3)CCN(C(CO)CO)CC4)no2)cc1C#N [Example 108, 5-(3-{3-[2-hydroxy-1-(hydroxymethyl)ethyl]-2,3,4,5-tetrahydro-1H-3-benzazepin-7-yl}-1,2,4-oxadiazol-5-yl)-2-[(1-methylethyl)amino]-3-pyridinecarbonitrile hydrochloride]",≤ 100
7,"COCCN1CCc2c(cccc2-c2nnc(-c3ccc(OC(C)C)c(C#N)c3)s2)C1 [Example 37, 2-[(1-Methylethyl)oxy]-5-(5-{2-[2-(methyloxy)ethyl]-1,2,3,4-tetrahydro-5-isoquinolinyl}-1,3,4-thiadiazol-2-yl)benzonitrile]",≤ 100
8,"CC(C)Oc1ccc(-c2nc(-c3ccc4c(c3)CCN(C(C)C(=O)NCCO)CC4)no2)cc1C#N (stereo not drawn) [Example 161, 2-[7-(5-{3-cyano-4-[(1-methylethyl)oxy]phenyl}-1,2,4-oxadiazol-3-yl)-1,2,4,5-tetrahydro-3H-3-benzazepin-3-yl]-N-(2-hydroxyethyl)propanamide hydrochloride]",≤ 100
9,"Cc1c(-c2nnc(-c3ccc(OC(C)C)c(Cl)c3)s2)ccc2c1CCN(C(CO)CO)C2 [Example 203, 2-[6-(5-{3-chloro-4-[(1-methylethyl)oxy]phenyl}-1,3,4-thiadiazol-2-yl)-5-methyl-3,4-dihydro-2(1H)-isoquinolinyl]-1,3-propanediol hydrochloride]",≤ 100
10,"CC(C)Oc1ccc(-c2nnc(-c3ccc4c(c3)CCN(C(=O)CNCCO)CC4)s2)cc1C#N [Example 200, 5-(5-{3-[N-(2-hydroxyethyl)glycyl]-2,3,4,5-tetrahydro-1H-3-benzazepin-7-yl}-1,3,4-thiadiazol-2-yl)-2-[(1-methylethyl)oxy]benzonitrile]",≤ 10
11,"CC(C)Oc1ccc(-c2nc(-c3ccc4c(c3)CCN(C(C)C(=O)N[C@H](C)CO)CC4)no2)cc1C#N (stereo partly drawn) [Example 162, 2-[7-(5-{3-cyano-4-[(1-methylethyl)oxy]phenyl}-1,2,4-oxadiazol-3-yl)-1,2,4,5-tetrahydro-3H-3-benzazepin-3-yl]-N-(1R)-2-hydroxy-1-methylethyl]propanamide hydrochloride]",≤ 100
12,"Cc1c(-c2noc(-c3ccc(OC(C)C)c(C#N)c3)n2)ccc2c1CCN(C(=O)CN[C@@H](C)CO)C2 [Example 130, 5-[3-(2-{N-[(1S)-2-hydroxy-1-methylethyl]glycyl}-5-methyl-1,2,3,4-tetrahydro-6-isoquinolinyl)-1,2,4-oxadiazol-5-yl]-2-[(1-methylethyl)oxy]benzonitrile]",≤ 10
13,"N#Cc1cc(-c2nc(-c3ccc4c(c3)CCN(C(=O)CN)CC4)no2)ccc1OCC(F)(F)F [Example 191, 5-[3-(3-glycyl-2,3,4,5-tetrahydro-1H-3-benzazepin-7-yl)-1,2,4-oxadiazol-5-yl]-2-[(2,2,2-trifluoroethyl)oxy]benzonitrile hydrochloride]",≤ 10

# Now from value to compound:
row,EC50 [nM],Structure (SMILES)
1,≤ 10,"Cc1c(-c2noc(-c3ccc(OC(C)C)c(C#N)c3)n2)ccc2c1CCN(CCCC(N)=O)C2 [Example 4, 4-[6-(5-{3-Cyano-4-[(1-methylethyl)oxy]phenyl}-1,2,4-oxadiazol-3-yl)-5-methyl-3,4-dihydro-2(1H)-isoquinolinyl]butanamide]"
2,≤ 10,"Cc1c(-c2noc(-c3ccc(OC(C)C)c(C#N)c3)n2)ccc2c1CCN(CC(N)=O)C2 [Example 3, 2-[6-(5-{3-Cyano-4-[(1-methylethyl)oxy]phenyl}-1,2,4-oxadiazol-3-yl)-5-methyl-3,4-dihydro-2(1H)-isoquinolinyl]acetamide]"
3,≤ 10,"Cc1c(-c2noc(-c3cnc(OC(C)C)c(C#N)c3)n2)ccc2c1CCN(CC(=O)N[C@@H](C)CO)C2 [Example 170, 2-[6-(5-{5-cyano-6-[(1-methylethyl)oxy]-3-pyridinyl}-1,2,4-oxadiazol-3-yl)-5-methyl-3,4-dihydro-2(1H)-isoquinolinyl]-N-[(1S)-2-hydroxy-1-methylethyl]acetamide hydrochloride]"
4,≤ 10,"Cc1c(-c2noc(-c3ccc(OC(C)C)c(Cl)c3)n2)ccc2c1CCN(CC(=O)NC(CO)CO)C2 [Example 193, 2-[6-(5-{3-chloro-4-[(1-methylethyl)oxy]phenyl}-1,2,4-oxadiazol-3-yl)-5-methyl-3,4-dihydro-2(1H)-isoquinolinyl]-N-[2-hydroxy-1-(hydroxymethyl)ethyl]acetamide hydrochloride]"
5,≤ 10,"Cc1c(-c2noc(-c3ccc(OC(C)C)c(C#N)c3)n2)ccc2c1CCN(C(=O)CNC[C@H](O)CO)C2 [Example 126, 5-[3-(2-{N-[(2S)-2,3-dihydroxypropyl]glycyl}-5-methyl-1,2,3,4-tetrahydro-6-isoquinolinyl)-1,2,4-oxadiazol-5-yl]-2-[(1-methylethyl)oxy]benzonitrile hydrochloride]"
6,≤ 10,"CC(C)Oc1ccc(-c2nc(-c3ccc4c(c3)CCN(C[C@@H](O)C(=O)NCCO)CC4)no2)cc1C#N [Example 164, (2R)-3-[7-(5-{3-cyano-4-[(1-methylethyl)oxy]phenyl}-1,2,4-oxadiazol-3-yl)-1,2,4,5-tetrahydro-3H-3-benzazepin-3-yl]-2-hydroxy-N-(2-hydroxyethyl)propanamide hydrochloride]"
7,≤ 10,"Cc1c(-c2noc(-c3ccc(OC(C)C)c(C#N)c3)n2)ccc2c1CCN(C(=O)CNC(CO)CO)C2 [Example 127, 5-[3-(2-{N-[2-hydroxy-1-(hydroxymethyl)ethyl]glycyl}-5-methyl-1,2,3,4-tetrahydro-6-isoquinolinyl)-1,2,4-oxadiazol-5-yl]-2-[(1-methylethyl)oxy]benzonitrile hydrochloride]"
8,≤ 10,"Cc1c(-c2noc(-c3ccc(OC(C)C)c(Cl)c3)n2)ccc2c1CCN(CC(=O)NC[C@H](O)CO)C2 [Example 192, 2-[6-(5-{3-chloro-4-[(1-methylethyl)oxy]phenyl}-1,2,4-oxadiazol-3-yl)-5-methyl-3,4-dihydro-2(1H)-isoquinolinyl]-N-[(2S)-2,3-dihydroxypropyl]acetamide hydrochloride]"
9,≤ 10,"CC(C)Oc1ccc(-c2nc(-c3ccc4c(c3)CCN(CC(=O)NCCCO)CC4)no2)cc1C#N [Example 157, 2-[7-(5-{3-cyano-4-[(1-methylethyl)oxy]phenyl}-1,2,4-oxadiazol-3-yl)-1,2,4,5-tetrahydro-3H-3-benzazepin-3-yl]-N-(3-hydroxypropyl)acetamide]"
10,≤ 10,"Cc1c(-c2noc(-c3ccc(OC(C)C)c(Cl)c3)n2)ccc2c1CCN(CC(=O)NCCO)C2 [Example 136, 2-[6-(5-{3-chloro-4-[(1-methylethyl)oxy]phenyl}-1,2,4-oxadiazol-3-yl)-5-methyl-3,4-dihydro-2(1H)-isoquinolinyl]-N-(2-hydroxyethyl)acetamide hydrochloride]"

# Biological target: T2, S1P1 receptor (S1P1 expressing RH7777 membranes) (Homo sapiens, UniProt P21453)
# T2 construct: expressed in transfected cells; host or cells: RH7777 cells (membranes)
# T2 sequence (P21453 whole entry): as the sequence (P21453 whole entry) above
# Assay: S1P1 GTPγS assay
# Format: biochemical
# Conditions: tested in one of the above S1P1 assays (two GTPγS formats)
# In short: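 Membranes from RH7777 cells expressing human S1P1 (1.5 μg/well) precoupled 30 min on ice to WGA SPA beads in 20 mM HEPES pH 7.4, 10 mM MgCl2, 100 mM NaCl, with 10 μM GDP and 90 μg/ml saponin. [35S]-GTPγS 0.5 nM final added with compound; SPA signal read immediately.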
row,Structure (SMILES),EC50 [nM]
1,"Cc1c(-c2noc(-c3ccc(OC(C)C)c(C#N)c3)n2)ccc2c1CCN(CCC(=O)N(C)C)C2 [Example 2, 3-[6-(5-{3-Cyano-4-[(1-methylethyl)oxy]phenyl}-1,2,4-oxadiazol-3-yl)-5-methyl-3,4-dihydro-2(1H)-isoquinolinyl]-N,N-dimethylpropanamide]",≤ 100
2,"CCOc1ccc(-c2nc(-c3ccc4c(c3)CCN(CC(O)CO)CC4)no2)cc1C#N (stereo not drawn) [Example 70, 5-{3-[3-(2,3-dihydroxypropyl)-2,3,4,5-tetrahydro-1H-3-benzazepin-7-yl]-1,2,4-oxadiazol-5-yl}-2-(ethyloxy)benzonitrile]",≤ 100

# Second part, the compound after the results:
row,EC50 [nM],Structure (SMILES)
1,≤ 100,"Cc1c(-c2noc(-c3ccc(OC(C)C)c(C#N)c3)n2)ccc2c1CCN(CCCC(N)=O)C2 [Example 4, 4-[6-(5-{3-Cyano-4-[(1-methylethyl)oxy]phenyl}-1,2,4-oxadiazol-3-yl)-5-methyl-3,4-dihydro-2(1H)-isoquinolinyl]butanamide]"
2,≤ 100,"Cc1c(-c2noc(-c3ccc(OC(C)C)c(C#N)c3)n2)ccc2c1CCN(CC(N)=O)C2 [Example 3, 2-[6-(5-{3-Cyano-4-[(1-methylethyl)oxy]phenyl}-1,2,4-oxadiazol-3-yl)-5-methyl-3,4-dihydro-2(1H)-isoquinolinyl]acetamide]"

# Reference: patent US20120101083A1, “S1P1 AGONISTS COMPRISING A BICYCLIC N-CONTAINING RING” (GLAXO GROUP LIMITED, priority 2009, published 2012)
